Assay results reported in patent publication US9528155B2, “In vitro method for determining immunotoxicity of a compound” (UNIVERSITEIT MAASTRICHT, priority 2012, dated 2016).
Like-named read-outs stand apart in the source and are kept apart here.

Legend:
Format in all cases: cell-based, human
HMGCS1 = experiment: Fluidigm multiplex real-time quantitative PCR of marker gene HMGCS1 in exposed Jurkat cells
CRIM1 = experiment: Fluidigm multiplex real-time quantitative PCR of marker gene CRIM1 in exposed Jurkat cells
CHAC1 = experiment: Fluidigm multiplex real-time quantitative PCR of marker gene CHAC1 in exposed Jurkat cells
ABCA1 = experiment: Fluidigm multiplex real-time quantitative PCR of marker gene ABCA1 in exposed Jurkat cells
[1] = Jurkat cells, 6 h exposure at sub-cytotoxic exposure conc. of Tables 1/2, vs vehicle control, N=3, below -1.0 = underexpression

Row | Molecule | Expression levels of marker genes upon exposure: HMGCS1 (Fold Change) (HMGCS1; [1]) | Expression levels of marker genes upon exposure: CRIM1 (Fold Change) (CRIM1; [1]) | Expression levels of marker genes upon exposure: CHAC1 (Fold Change) (CHAC1) | Expression levels of marker genes upon exposure: HMGCS1 (Fold Change) (HMGCS1) | Expression levels of marker genes upon exposure: CRIM1 (Fold Change) (CRIM1) | Expression levels of marker genes upon exposure: ABCA1 (Fold Change) (ABCA1) | Expression levels of marker genes upon exposure: CHAC1 (Fold Change) (CHAC1; [1]) | Expression levels of marker genes upon exposure: ABCA1 (Fold Change) (ABCA1; [1])
1 | C[C@@H]1C[C@H]2[C@@H]3CCC4=CC(=O)C=C[C@]4(C)[C@@]3(F)[C@@H](O)C[C@]2(C)[C@@]1(O)C(=O)CO [DEX, dexamethasone] | 1.0 ± 0.1 | 1.4 ± 0.6 | – | – | – | – | – | –
2 | O=S(=O)(O)C(F)(F)C(F)(F)C(F)(F)C(F)(F)C(F)(F)C(F)(F)C(F)(F)C(F)(F)F [PFOS] | – | – | 1.8 ± 1.5 | −1.1 ± 0.2 | −1.5 ± 0.4 | −4.3 ± 0.2 | – | –
3 | Cl[C@H]1[C@H](Cl)[C@@H](Cl)[C@@H](Cl)[C@H](Cl)[C@H]1Cl [LIN, Gamma-hexachlorocyclohexane] | −2.4 ± 0 | 2.3 ± 0.1 | – | – | – | – | 10.2 ± 7.6 | 3.4 ± 3.6
4 | tributyltin oxide [TBTO] | −1.5 ± 0.1 | −1.1 ± 0.8 | – | – | – | – | −1.1 ± 0.4 | 30.9 ± 8.5
5 | C[C@]12C=CC(=O)C=C1CC[C@@H]1[C@@H]2[C@@H](O)C[C@@]2(C)[C@H]1CC[C@]2(O)C(=O)CO [PRD, prednisolone] | 1.7 ± 0.1 | 3.9 ± 0.6 | – | – | – | – | 2.7 ± 1.9 | 1.0 ± 0.6
6 | O=[N+]([O-])c1ccc2ccc3cccc4ccc1c2c34 [1-NPR, 1-Nitropyrene] | – | – | – | – | 1.3 ± 1.6 | 1.3 ± 1.2 | – | –
7 | CCO [EtOH, ethanol] | – | – | – | – | – | – | 34.3 ± 2.3 | 1.2 ± 1.0
8 | CCCCC(CC)COC(=O)c1ccccc1C(=O)OCC(CC)CCCC (stereo not shown) [DEHP, Bis(2-ethylhexyl)phthalate] | 1.2 ± 0.1 | 1.9 ± 1.5 | – | – | – | – | – | –
9 | OC[C@@H](O)[C@@H](O)[C@H](O)[C@H](O)CO [MANNITOL] | 1.2 ± 0.3 | 1.1 ± 0.7 | – | – | – | – | – | –
10 | C=CC(=O)NCNC(=O)C=C [MBA, N,N′-methylenebisacrylamide] | – | – | 1.5 ± 2.1 | 1.0 ± 1.1 | 1.1 ± 1.9 | – | – | –
11 | CN(Cc1cnc2nc(N)nc(N)c2n1)c1ccc(C(=O)N[C@@H](CCC(=O)O)C(=O)O)cc1 [MTX, methotrexate] | – | 1.4 ± 1.1 | – | – | – | – | – | –
12 | COc1c(C)c2c(c(O)c1C/C=C(\C)CCC(=O)O)C(=O)OC2 [MPA, mycophenolic acid] | – | – | – | – | – | – | 1.5 ± 0.9 | 1.1 ± 0.7
13 | CCCCC(CC)COC(=O)c1ccccc1C(=O)O (stereo not shown) [MEHP, mono-(2-ethylhexyl) phthalate] | – | – | 3.5 ± 2.1 | 1.6 ± 0.9 | −1 ± 0.6 | −1.2 ± 0.1 | – | –
14 | O=[N+]([O-])[O-].[Ag+] [AgNO3, silver nitrate] | 1.6 ± 0.9 | 1.1 ± 0.3 | – | – | – | – | −1.1 ± 0.5 | 1.5 ± 1.2
15 | CC1(C)S[C@@H]2[C@H](NC(=O)[C@H](N)c3ccccc3)C(=O)N2[C@H]1C(=O)O [AMP, ampicillin] | 1.4 ± 0.3 | 1.2 ± 1.1 | – | – | – | – | – | –
16 | Cn1cnc([N+](=O)[O-])c1Sc1ncnc2nc[nH]c12 [AZA, azathioprine] | 1.1 ± 0.2 | 1.8 ± 1.0 | – | – | – | – | 2.3 ± 2.1 | –
17 | ochratoxin A, S9-treated [OTA S9] | 2.0 ± 1.0 | −1.1 ± 0.5 | – | – | – | – | −13.8 ± 0.0 | 1.3 ± 1.8
18 | [Cl][Cd][Cl] [CdCl2, cadmium dichloride] | 2.2 ± 1.3 | 4.3 ± 2.0 | – | – | – | – | 7.0 ± 1.5 | 1.3 ± 1.3
19 | CC1=C[C@H]2O[C@@H]3[C@H](O)C[C@](C)([C@@]2(CO)[C@H](O)C1=O)[C@]31CO1 [DON, deoxynivalenol] | −1.5 ± 0.3 | 1.4 ± 0.4 | – | – | – | – | −1.4 ± 0.4 | −1.9 ± 0.2
20 | CN(C)N=O [DMNA, dimethylnitrosamine] | – | – | −1.5 ± 1.5 | 1.2 ± 1.1 | −12 ± 1.5 | −1.8± | – | –
21 | arsenic trioxide [As2O3] | −1.1 ± 0.2 | 2.4 ± 1.1 | – | – | – | – | 41.2 ± 32.5 | 1.4 ± 0.3
22 | O=P1(N(CCCl)CCCl)NCCCO1 (stereo not shown) [CP S9, cyclophosphamide] | 2.0 ± 1 | 1.1 ± 0.3 | – | – | – | – | – | 1.9 ± 1.6
23 | Sc1ncnc2nc[nH]c12 [6MP, 6-mercaptopurine] | – | 1.0 ± 0.6 | – | – | – | – | 1.8 ± 1.1 | –
24 | Cn1c(N)nc2c3cccnc3ccc21 [IQ, 2-amino-3-methyl-3H-imidazo[4,5-F]quinoline] | – | – | – | – | 1.1 ± 1.8 | 1.0 ± 2.2 | – | –
25 | CCOC(N)=O [urethane] | 1.2 ± 0.3 | 1.1 ± 0.5 | – | – | – | – | 1.2 ± 0.4 | –
26 | C[C@@H]1Cc2c(Cl)cc(C(=O)N[C@@H](Cc3ccccc3)C(=O)O)c(O)c2C(=O)O1 [OTA, ochratoxin A] | −2.5 ± 0.1 | −1.3 ± 0.1 | – | – | – | – | 32.9 ± 14.5 | −2.2 ± 0.1
27 | Clc1cc(Cl)c(-c2cc(Cl)c(Cl)cc2Cl)cc1Cl [PCB153, polychlorinated biphenyl 153] | – | – | 1.2 ± 3 | 2.0 ± 1.2 | −1.2 ± 2.2 | 1.1 ± 1.4 | – | –
28 | CCC(=O)Nc1ccc(Cl)c(Cl)c1 [PROP, N-(3,4-Dichloro-phenyl)propanamide] | – | 1.4 ± 0.1 | – | – | – | – | – | 1.3 ± 1
